In general, IC50 refers to the midpoint of a concentration-inhibition curve.

Format in all cases: cell-based
Assay [1] has as its system methicillin-resistant Staphylococcus aureus, USA300 JE2. Description: MIC by broth dilution, MRSA. The settings on record: 20 h at 37 °C in Müller–Hinton broth. Here is the method: (§1) The compounds were screened against cultures of the gram-positive bacterium methicillin-resistant Staphylococcus aureus, USA300 JE2 ([ref. 28 and 29]) (MRSA) and the gram-negative Escherichia coli, TOP10 (E. coli).[30] Kanamycin[30] was used as a positive control.
(§2) MIC values were established using a […] broth dilution method in cation-adjusted Müller–Hinton (MH) broth. 96-well plates (200 μL of 128 μg mL^–1, 64 μM) complex in MH broth, diluted 2^n μg mL^–1, inoculated with each bacterial strain (10^3 cfu mL^–1) were sealed and growth was monitored over 20 h at 37 °C with an iEMS 96-well plate reader (see ESI ^†).

In the next assay the test system is Escherichia coli, TOP10. Description: MIC by broth dilution, E. coli. The settings on record: 20 h at 37 °C in Müller–Hinton broth. Here is the method:
as §1, §2

Assay [2] concerns HCT116 p53^–/– (human colon carcinoma, p53-null). Description: MTT chemosensitivity (IC50), HCT116 p53-/- cells. The settings on record: 96 h exposure, triplicate, mean with standard deviation (esd). The source says:
(§3) The activities of the new compounds and cisplatin were investigated in human tumour cell lines: (a) MDA-MB-468 (human epithelial breast adenocarcinoma);[24] (b) HCT116 p53^+/+ and (c) HCT116 p53^–/–.[25] The HCT116 p53^+/+ and HCT116 p53^–/– cancer cells are human colorectal cancer cell lines that are genetically identical (isogenic) except for the presence or absence of functional p53.[25] These were chosen to enable screening of the effects of p53 status as the loss of p53 function is common genetic event in patient tumours and is strongly associated with increased resistance to many conventional chemotherapeutic agents.[25],[26]
(§4) Compounds were added (100 μM to 5 nM in cell medium) for a further 96 h. 3-(4,5-Dimethylthiazol-[…])-2,5-diphenyl tetrazolium bromide solution (0.5 mg mL^–1, 20 μL per well) was added for a final 4 h. Upon completion all solutions were aspirated, dimethyl sulfoxide (150 μl) was added and absorbance (540 nm) was recorded with a Thermo Scientific Multiskan EX microplate photometer. […]
(§5) 0 ×10 3 c el l s / wel l and i nc u bat ed f or24 hat 37 ° C i n an at mos p h er e of5% C O2, p r i ort o d r u gexp os u r e. […]
(§6) C ell med ia (20 0 μ l) was ad d ed to the referenc e c ells and d iffering c onc entrations of d ru g s olu tion (20 0 μ l) were ad d ed to the remaining wells . […]

The subject of assay [3] is HCT116 p53^+/+ (human colon carcinoma, wild type p53). Description: MTT chemosensitivity (IC50), HCT116 p53+/+ cells. The settings on record: 96 h exposure, triplicate, mean with standard deviation (esd).
Source text: as §3, §4, §5, §6

Assay [4] has as its system MDA-MB-468 (human epithelial breast adenocarcinoma). Description: MTT chemosensitivity (IC50), MDA-MB-468 cells. The conditions noted are these: 96 h exposure, triplicate, mean with standard deviation (esd).
Source text: as §3, §4, §5, §6

Where [5] appears, read: approximate concentration in μM.

Take `NC[C@H]1O[C@H](O[C@H]2[C@H](O)[C@@H](O[C@H]3O[C@H](CO)[C@@H](O)[C@H](N)[C@H]3O)[C@H](N)C[C@@H]2N)[C@H](O)[C@@H](O)[C@@H]1O` [Kanamycin]: the “MRSA MIC” value in assay [1] came to 1 μg ml^–1; in assay [1] (setting [5]) it was 2 µM. Further, the “E. coli MIC” value in the assay on Escherichia coli, TOP10 is 2 μg ml^–1; in the assay on Escherichia coli, TOP10 (setting [5]), 4 µM.

For `N.N.[Cl][Pt][Cl]` [cisplatin], the IC50 is 8.1 ± 1.8 µM in assay [2], 3.5 ± 1.5 µM in assay [3] and 2.5 ± 0.5 µM in assay [4].

(Values after paper PMC5530816, “Anticancer metallohelices: nanomolar potency and high selectivity” (Chemical Science, 2015).)
